Measurements: PMC10399917 (Journal of Molecular Cell Biology, 2023)

What follows are compounds tested against His-SPIKE-S2 (Severe acute respiratory syndrome coronavirus 2, UniProt P0DTC2). Conditions: 25 µM.
Format: binding, SARS-CoV-2

For `N#C/C(=C/c1ccc(O)c(O)c1)C(=O)NCc1ccccc1` [AG-490], which “Thermal shift of His-SPIKE-S2 compared to DMSO control” value (“Thermal shift of His-SPIKE-S2” for short) is on record?
The value was “did not show a change in the thermal shift curve”.

`O=C(/C=C/c1ccc(O)c(O)c1)OCCc1ccccc1` [CAPE, caffeic acid phenethyl ester] was tested. Which “Thermal shift of His-SPIKE-S2” value did it give?
The value was “did not show a change in the thermal shift curve”.

For `CC(C)c1onc(-c2c(Cl)cccc2Cl)c1COc1ccc(/C=C/c2cccc(C(=O)O)c2)c(Cl)c1` [GW4064], which “Thermal shift of His-SPIKE-S2” value is on record?
The value was “interfered with the assay”.

`Cc1cc2c(C(C)C)c(O)c(O)c(C=O)c2c(O)c1-c1c(C)cc2c(C(C)C)c(O)c(O)c(C=O)c2c1O` [gossypol acetate] was tested. Which “Thermal shift of His-SPIKE-S2” value did it give?
Its value is “showed thermal shift”.
